From the supplement of paper PMC10307832

Experiments:
Experiment in all cases: relative viability (nuclei count vs DMSO), 5 days (fraction); higher = more cells survive
[1] = compound: O=C(C[C@H]1NCCC[C@@H]1O)Cn1cnc2cc(Br)c(Cl)cc2c1=O (racemic) [Halofuginone] + Nc1nc2[nH]cc(CCc3ccc(C(=O)N[C@@H](CCC(=O)O)C(=O)O)cc3)c2c(=O)[nH]1 [Pemetrexed] (partner 0.2 µM)
Procedure, shortened: (§1)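 Lung cancer cell lines in 1536-well plates were dosed by pin tool the day after seeding, either with one drug alone or with a fixed anchor-drug dose plus five library-drug doses (not always all listed) in √10 steps. After 5 days, cells were fixed and their nuclei stained in one step (final 0.05% Triton X-100, 1% formaldehyde, 1 ug/ml Hoechst), then counted on 4× images. Relative viability is the nuclei count in treated wells divided by that in vehicle wells. Values are medians of duplicate plates.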

[2] = compound: O=C(C[C@H]1NCCC[C@@H]1O)Cn1cnc2cc(Br)c(Cl)cc2c1=O (racemic) [Halofuginone] + CC(=O)c1c(C)c2cnc(Nc3ccc(N4CCNCC4)cn3)nc2n(C2CCCC2)c1=O [Palbociclib] (partner 0.5 µM)
Procedure, shortened: as §1

Cediranib + Dasatinib = compound: COc1cc2c(Oc3ccc4[nH]c(C)cc4c3F)ncnc2cc1OCCCN1CCCC1 [Cediranib] + Cc1nc(Nc2ncc(C(=O)Nc3c(C)cccc3Cl)s2)cc(N2CCN(CCO)CC2)n1 [Dasatinib] (partner 0.075 µM)
Procedure, shortened: as §1

Cediranib + Bortezomib = compound: COc1cc2c(Oc3ccc4[nH]c(C)cc4c3F)ncnc2cc1OCCCN1CCCC1 [Cediranib] + CC(C)C[C@H](NC(=O)[C@H](Cc1ccccc1)NC(=O)c1cnccn1)B(O)O [Bortezomib] (partner 0.002 µM)
Procedure, shortened: as §1

Cell Line	relative viability ([1]; first compound 0.001 µM)	relative viability ([1]; first compound 0.003162 µM)	relative viability ([1]; first compound 0.01 µM)	relative viability ([1]; first compound 0.03162 µM)	relative viability ([1]; first compound 0.1 µM)	relative viability ([2]; first compound 0.001 µM)	relative viability ([2]; first compound 0.003162 µM)	relative viability ([2]; first compound 0.01 µM)	relative viability ([2]; first compound 0.03162 µM)	relative viability ([2]; first compound 0.1 µM)	relative viability (Cediranib + Dasatinib; first compound 0.04 µM)	relative viability (Cediranib + Dasatinib; first compound 0.1265 µM)	relative viability (Cediranib + Dasatinib; first compound 0.4 µM)	relative viability (Cediranib + Dasatinib; first compound 1.265 µM)	relative viability (Cediranib + Dasatinib; first compound 4 µM)	relative viability (Cediranib + Bortezomib; first compound 0.04 µM)	relative viability (Cediranib + Bortezomib; first compound 0.1265 µM)	relative viability (Cediranib + Bortezomib; first compound 0.4 µM)	relative viability (Cediranib + Bortezomib; first compound 1.265 µM)	relative viability (Cediranib + Bortezomib; first compound 4 µM)
NCI-H650	0.981	0.954	0.946	0.825	0.696	0.362	0.337	0.302	0.294	0.305	0.434	0.458	0.434	0.453	0.482	0.873	0.625	0.879	0.764	0.718
NCI-H1975	0.281	0.297	0.274	0.263	0.146	0.66	0.547	0.553	0.42	0.157	0.361	0.35	0.337	0.356	0.352	0.423	0.479	0.326	0.432	0.345
NCI-H2085	0.93	0.873	0.872	1.03	0.783	0.521	0.461	0.458	0.461	0.487	0.257	0.26	0.273	0.272	0.23	1.1	1.05	0.956	0.97	0.954
NCI-H3122	0.207	0.191	0.205	0.189	0.198	0.186	0.155	0.162	0.186	0.19	0.901	0.694	0.731	0.542	0.897	0.996	0.967	1.01	1.06	1
NCI-H1651	0.56	0.489	0.568	0.572	0.592	0.523	0.515	0.51	0.513	0.509	0.53	0.46	0.432	0.385	0.343	0.972	0.87	0.915	0.914	0.894
NCI-H441	0.28	0.263	0.205	0.261	0.246	0.254	0.241	0.206	0.241	0.152	0.466		0.678	0.559	0.772	0.304	0.688		0.498	0.934
NCI-H2126	0.719	0.655	0.624	0.68	0.571	0.362	0.344	0.347	0.346	0.354	0.634	0.569	0.609	0.554	0.543	1.14	1.2	1.09	0.963	1.11
RERF-LC-KJ	0.452	0.45	0.434	0.454	0.461	1.18	0.973	1.12	1.03	0.811	0.823	0.695	0.842	0.834	0.838	1.09		1.04	1.11	1.17
NCI-H1666	0.883	0.78	0.904	0.878	0.806	0.668	0.683	0.641	0.676	0.645	0.831	0.888	0.797	0.829	0.762	0.9	0.607	0.852	0.815	0.836
PC-14	0.153	0.148	0.143	0.163	0.164	0.509	0.597	0.514	0.17	0.0426	0.235	0.27	0.243	0.224	0.0965	0.889	0.831	0.734	0.878	0.902
NCI-H1915	0.499	0.546	0.513	0.392	0.465	0.571	0.514	0.523	0.472	0.422	0.279	0.305	0.305	0.324	0.345	0.989	0.914	0.958	0.949	0.984
NCI-H661	0.927	0.896	0.868	0.768	0.642	0.422	0.405	0.37	0.373	0.312	1.01	1.28	0.842	0.926	0.976	0.907	1.11	0.793	0.805	1.16
HCC-78	0.906	0.926	0.885	0.937	0.889	0.516	0.519	0.497	0.488	0.551	0.376	0.363	0.405	0.29	0.406	0.51	0.576	0.504	0.533	0.601
PC-3 [JPC-3]	1.1	1.12	0.983	1.21	0.854	0.595	0.511	0.529	0.516	0.493	1.09	1.1	0.966	1.04	0.909	0.844	0.829	0.844	0.924	0.809
LCLC-103H	0.479	0.362	0.455	0.443	0.498	0.492	0.491	0.462	0.467	0.523	0.594	0.578	0.413	0.511	0.5	0.989	1.12	0.921	1.14	1.11
EKVX	0.42	0.474	0.396	0.409	0.416	0.377	0.352	0.415	0.444	0.306	0.534	0.625	0.564	0.582	0.591	1.12	0.892	0.975	0.939	0.865
